Laboratory results from patent US20210179666A1, “CYCLIC PEPTIDES AND METHODS OF USE THEREOF” (Regents of the University of Minnesota, priority 2019, published 2021).
Where “and” joins values, the source holds several entries; their conditions need not be identical. Identical values can stand only once. Like-named read-outs stand apart in the source and are kept apart here. Square brackets hold non-standard residues; d marks the D form. Peptide text beside a SMILES is read from it. Gly(N-(CH2)3-guanidino) = N=C(N)NCCCNCC(=O)O; Dap = NC[C@H](N)C(=O)O

Legend:
[1] = target: T1, mMC4R (Mus musculus, UniProt P56450); assay: cell-based
[2] = target: T2, mMC3R (Mus musculus, UniProt P33033); conditions: for mMC3R pA2: antagonist, Schild analysis with NDP-MSH, ± SEM
[3] = target: T1, mMC4R; conditions: Example 1; for mMC4R pA2: antagonist, Schild analysis with NDP-MSH, ± SEM, <5.0 = no antagonist potency up to 10,000 nM
[4] = target: T3, hMC4R (Homo sapiens, UniProt P32245); assay: cAMP AlphaScreen bioassay, HEK293 cells stably expressing hMC4R; type: cell-based; design: expressed in transfected cells; conditions: for hMC4R pA2: antagonist pA2, Schild analysis with agonist NDP-MSH, ± SEM, <5.0 = no antagonist potency up to 10,000 nM; for Observed Inverse Agonism?: hMC4R, cAMP
[5] = target: T4, mMC1R (Mus musculus, UniProt Q01727); assay: 125I-NDP-MSH competitive binding assay, transfected HEK293 cells, mMC1R; conditions: binding IC50 versus control 1 (Asn) or 2 (Dap)
[6] = target: T2, mMC3R; assay: 125I-NDP-MSH competitive binding assay, transfected HEK293 cells, mMC3R; conditions: binding IC50 versus control 1 (Asn) or 2 (Dap)
[7] = target: T1, mMC4R; assay: 125I-NDP-MSH competitive binding assay, transfected HEK293 cells, mMC4R; conditions: binding IC50 versus control 1 (Asn) or 2 (Dap)
[8] = target: T5, mMC5R (Mus musculus, UniProt P41149); assay: 125I-NDP-MSH competitive binding assay, transfected HEK293 cells, mMC5R; conditions: binding IC50 versus control 1 (Asn) or 2 (Dap)
[9] = target: T3, hMC4R; assay: 125I-NDP-MSH competitive binding assay, transfected HEK293 cells, hMC4R; conditions: binding IC50 versus control 1 (Asn) or 2 (Dap)
[10] = target: MC5R (Homo sapiens, UniProt P33032); conditions: chemically synthetized AgRP ligands, Yang et al. 1999, cited from earlier work
[11] = target: T5, mMC5R; conditions: for mMC5R pA2: Example 1, antagonist, Schild analysis with NDP-MSH, ± SEM, reported herein for the first time
[12] = target: T2, mMC3R; conditions: compounds 1 and 2, previously reported, cited from earlier work; for mMC3R pA2: antagonist
[13] = target: T5, mMC5R; design: expressed in transfected cells; conditions: compounds 1 and 2, previously reported; cited from earlier work
[14] = target: T4, mMC1R; assay: cAMP AlphaScreen bioassay, HEK293 cells stably expressing mMC1R
[15] = Example 1, <5.0 = no antagonist potency up to 10,000 nM

T5 sequence (P41149 whole entry): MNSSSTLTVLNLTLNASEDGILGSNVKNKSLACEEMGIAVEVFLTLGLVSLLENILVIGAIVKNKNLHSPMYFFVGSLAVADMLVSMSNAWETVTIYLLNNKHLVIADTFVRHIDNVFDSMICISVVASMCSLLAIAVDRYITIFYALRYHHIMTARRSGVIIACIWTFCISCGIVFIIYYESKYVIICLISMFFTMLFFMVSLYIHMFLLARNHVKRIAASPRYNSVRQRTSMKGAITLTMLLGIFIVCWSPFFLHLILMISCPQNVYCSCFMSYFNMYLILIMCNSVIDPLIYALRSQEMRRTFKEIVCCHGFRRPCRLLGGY
T4 sequence (Q01727 whole entry): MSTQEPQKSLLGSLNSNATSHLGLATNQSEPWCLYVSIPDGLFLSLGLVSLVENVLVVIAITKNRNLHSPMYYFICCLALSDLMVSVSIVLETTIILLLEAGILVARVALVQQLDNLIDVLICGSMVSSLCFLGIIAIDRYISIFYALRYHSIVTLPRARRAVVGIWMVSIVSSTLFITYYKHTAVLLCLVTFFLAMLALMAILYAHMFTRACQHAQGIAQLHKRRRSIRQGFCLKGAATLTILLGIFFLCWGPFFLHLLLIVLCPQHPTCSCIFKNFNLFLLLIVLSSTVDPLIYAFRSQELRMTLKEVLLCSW
T2 sequence (P33033 whole entry): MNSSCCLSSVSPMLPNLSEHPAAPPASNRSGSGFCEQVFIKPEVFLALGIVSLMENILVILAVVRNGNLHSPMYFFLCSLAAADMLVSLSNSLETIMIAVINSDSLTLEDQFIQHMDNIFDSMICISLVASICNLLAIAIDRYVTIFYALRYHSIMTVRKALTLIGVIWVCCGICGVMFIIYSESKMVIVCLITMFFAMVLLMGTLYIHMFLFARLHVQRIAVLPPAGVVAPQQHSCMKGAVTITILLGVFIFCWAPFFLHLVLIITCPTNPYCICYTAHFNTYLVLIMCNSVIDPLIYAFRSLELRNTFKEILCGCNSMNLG
T3 sequence (P32245 whole entry): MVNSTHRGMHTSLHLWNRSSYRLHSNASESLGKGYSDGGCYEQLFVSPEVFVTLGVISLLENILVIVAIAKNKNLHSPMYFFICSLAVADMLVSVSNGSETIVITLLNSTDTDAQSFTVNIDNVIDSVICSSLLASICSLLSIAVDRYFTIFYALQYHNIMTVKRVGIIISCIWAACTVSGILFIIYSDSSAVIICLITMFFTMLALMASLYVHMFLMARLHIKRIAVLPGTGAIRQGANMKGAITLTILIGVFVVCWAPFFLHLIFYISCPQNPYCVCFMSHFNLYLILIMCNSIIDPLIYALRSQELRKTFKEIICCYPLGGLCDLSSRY
T1 sequence (P56450 whole entry): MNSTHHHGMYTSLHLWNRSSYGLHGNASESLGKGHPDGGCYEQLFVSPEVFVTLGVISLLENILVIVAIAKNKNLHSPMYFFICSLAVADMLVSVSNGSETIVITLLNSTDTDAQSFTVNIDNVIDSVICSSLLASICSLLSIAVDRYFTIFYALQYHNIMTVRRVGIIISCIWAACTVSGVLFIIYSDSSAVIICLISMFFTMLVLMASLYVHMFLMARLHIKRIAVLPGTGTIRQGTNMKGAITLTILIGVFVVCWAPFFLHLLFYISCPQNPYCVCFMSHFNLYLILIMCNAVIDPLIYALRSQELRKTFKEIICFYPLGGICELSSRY
MC5R, sequence (P33032 whole entry, species assumed): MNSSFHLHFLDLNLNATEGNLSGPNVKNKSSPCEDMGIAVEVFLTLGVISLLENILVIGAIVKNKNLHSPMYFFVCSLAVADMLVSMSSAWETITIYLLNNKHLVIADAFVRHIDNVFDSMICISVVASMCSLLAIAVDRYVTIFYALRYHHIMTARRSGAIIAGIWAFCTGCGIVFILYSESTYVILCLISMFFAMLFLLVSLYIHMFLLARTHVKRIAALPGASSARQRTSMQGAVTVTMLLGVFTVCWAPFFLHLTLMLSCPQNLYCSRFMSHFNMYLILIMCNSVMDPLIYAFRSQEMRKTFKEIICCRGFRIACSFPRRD

Compound | mMC3R pA2 [2, 15] | mMC4R pA2 [3] | hMC4R pA2 [4] | Observed Inverse Agonism? [4] | mMC1R Fold Diff [5] | mMC3R Fold Diff [6] | mMC4R Fold Diff [7] | mMC5R Fold Diff [8] | hMC4R Fold Diff [9] | also measured
C[C@@H]1NC(=O)[C@H](CN)NC(=O)[C@H](Cc2ccccc2)NC(=O)[C@H](Cc2ccccc2)NC(=O)CN(CCCNC(=N)N)C(=O)[C@@H]2CCCN2C(=O)[C@H]2CCCN2C(=O)[C@H](Cc2ccccc2)NC1=O [MDE8-108-3c, c[Pro-NArg-Phe-Phe-Dap-Ala-Phe-DPro]] (cyclo([Gly(N-(CH2)3-guanidino)]FF[Dap]AF[dP]P)) | – | – | – | – | – | – | – | – | – | Kb [1]: 3.16 µM
C[C@@H]1NC(=O)[C@H](CN)NC(=O)[C@H](Cc2ccccc2)NC(=O)[C@H](Cc2ccccc2)NC(=O)[C@H](Cc2c[nH]cn2)NC(=O)[C@@H]2CCCN2C(=O)[C@H]2CCCN2C(=O)[C@H](Cc2ccccc2)NC1=O [ZMK 2-99, c[Pro-His-Phe-Phe-Dap-Ala-Phe-DPro]] (cyclo(PHFF[Dap]AF[dP])) | 5.4 and 5.4 ± 0.1 | 6.0 and 6.0 ± 0.1 | 6.4 and 6.4 ± 0.09 | No | 5 | 5 | 500 | 7 | 400 | –
AgRP: agouti-related protein, endogenous MC3R and MC4R antagonist and MC4R inverse agonist | – | – | – | Yes | – | – | – | – | – | IC50 ([10]; read-out: IC50, displacement of radiolabeled NDP-MSH at the MC5R): 0.31 µM; IC50 ([10]; read-out: IC50, displacement of radiolabeled AgRP at the MC5R): 0.026 µM
C[C@@H]1NC(=O)[C@H](CN)NC(=O)[C@H](Cc2ccccc2)NC(=O)[C@H](Cc2ccccc2)NC(=O)[C@H](CCCNC(=N)N)NC(=O)[C@@H]2CCCN2C(=O)[C@H]2CCCN2C(=O)[C@H](Cc2ccccc2)NC1=O [MDE 6-82-1c, c[Pro-Arg-Phe-Phe-Dap-Ala-Phe-DPro]] | – | – | – | Yes | – | – | – | – | – | mMC3R percent maximal stimulatory response ([2]; Example 2, @ 100 μM): 20% @; mMC3R pA2 ([2]; Example 2, <5.5 = no antagonist potency up to 10,000 nM): 6.5; mMC3R pA2 ([2]; Example 2, <5.5 = no antagonist potency up to 10,000 nM, listed as MDE6-82-1c): 6.5 ± 0.3; mMC5R pharmacology observed (Partial Agonist / Inverse Agonist) ([11]; Example 2): Inverse; mMC5R inverse agonist, percent decrease from basal ([11]; Example 2, basal to plateau signal, sigmoidal dose-response): −10%; EC50 ([12]; agonist): > 100 µM; mMC3R pA2 [12]: 6.5 and 6.5 ± 0.09; mMC3R pA2 ([12]; listed as MDE6-82-1c): 6.5-7.2; mMC5R inverse agonist, percent decrease from basal [13]: −15%; mMC5R pharmacology observed in agonist assay (Inverse Agonist) [13]: Inverse; mMC1R percent maximal stimulatory response ([14]; Example 2, @ 100 μM, EC50 not determinable): 36% @
CC(C)[C@@H]1NC(=O)[C@H](CC(N)=O)NC(=O)[C@H](Cc2ccccc2)NC(=O)[C@H](Cc2ccccc2)NC(=O)[C@H](CCCNC(=N)N)NC(=O)[C@@H]2CCCN2C(=O)[C@H]2CCCN2C(=O)[C@H](Cc2ccccc2)NC1=O [ZMK 2-82, c[Pro-Arg-Phe-Phe-Asn-Val-Phe-DPro]] (cyclo(PRFFNVF[dP])) | 5.9 and 5.9 ± 0.1 | 7.2 and 7.2 ± 0.1 | 7.7 | Yes | 2 | 3 | 2 | 2 | 3 | mMC4R percent maximal stimulatory response ([3]; @ 100 μM, relative to NDP-MSH signal): 16% @; mMC5R pA2 [11]: 6.1 and 6.1 ± 0.09; hMC4R pA2 ([4]; listed as AMK 2-82): 7.8 ± 0.03
C[C@@H]1NC(=O)[C@H](CN)NC(=O)[C@H](Cc2ccccc2)NC(=O)[C@H](Cc2ccc(O)cc2)NC(=O)[C@H](CCCNC(=N)N)NC(=O)[C@@H]2CCCN2C(=O)[C@H]2CCCN2C(=O)[C@H](Cc2ccccc2)NC1=O [ZMK 2-112, c[Pro-Arg-Tyr-Phe-Dap-Ala-Phe-DPro]] (cyclo(PRYF[Dap]AF[dP])) | 6.5 and 6.5 ± 0.1 | 7.3 and 7.3 ± 0.1 | 7.5 and 7.5 ± 0.2 | Yes | 4 | 9 | 70 | 20 | 100 | mMC5R pA2 [11]: 6.5 and 6.5 ± 0.2
C[C@@H]1NC(=O)[C@H](CN)NC(=O)[C@H](Cc2ccccc2)NC(=O)[C@H](Cc2ccccc2)NC(=O)[C@H](CS)NC(=O)[C@@H]2CCCN2C(=O)[C@H]2CCCN2C(=O)[C@H](Cc2ccccc2)NC1=O [ZMK 3-20, c[Pro-Cys-Phe-Phe-Dap-Ala-Phe-DPro]] (cyclo(PCFF[Dap]AF[dP])) | – | – | – | No | 6 | 15 | 5200 | – | 2100 | hMC4R agonist stimulation ([4]; up to 100 μM concentrations): unable to stimulate; mMC1R stimulation of the receptor, % of the NDP-MSH control ([14]; full agonist, maximal stimulation): 98%; EC50 ([14]; read-out: mMC1R EC50, Example 1, agonist, ± SEM, >100,000 = no agonist activity up to 100 μM): 4 µM
